The results in this text go back to patent publication US20220118170A1, “SYSTEMS, APPARATUS, AND METHODS FOR ADMINISTERING A SUBSTANCE” (Massachusetts Institute of Technology, priority 2015, published 2022).

In data set [1] the test system is dextran sodium sulfate (DSS)-induced acute colitis. The data set is described as follows: Dextran sodium sulfate-induced murine colitis model, mesalamine enema with radial UMGID. It is filed as in vivo, C57BL/6 mice. The source says:
Therefore, improvement in disease indices in this model as a result of ultrasound treatment would underscore the impact of UMGID. Given the colonic anatomy and the often circumferential nature of colitis involvement, it was hypothesized that radial UMGID would be most beneficial so as to direct the treatment over the largest area of inflamed tissue. […] The two bumps shown have a diameter of 3 mm and enhance radial ultrasound emission. […] Fifteen-week old, female C57BL/6 mice were purchased from Charles River Laboratories (Wilmington, Mass.) for the induction and treatment of dextran sodium sulfate (DSS)-induced colitis. Five animals were utilized per group. […] Each cage (group) was used as it was received and randomly assigned to experimental groups by the researchers performing the work. On day 1, blood was drawn from all mice and an initial weight of each animal was taken. Colitis was induced with 40-50 kDa dextran sulfate sodium salt (DSS) (available from, e.g., Affymetrix Inc., Santa Clara, Calif.). Starting on day 1, a 3% w/w DSS solution was administered in drinking water ad libitum. On days 3 and 5, the drinking solution was replaced with fresh DSS solution. […] The animals were monitored daily for weight, fecal consistency, and for the presence of fecal occult blood using Hemoccult cards (Beckman Coulter, Pasadena, Calif.). Fecal consistency and the presence of blood was scored based on previously published protocols. Specifically, stool consistency was scored as follows: (1) normal pellet-like feces, (2) pellet of stool easily crushed, (3) soft, watery stool with granules present, or (4) diarrhea. […] Animals with negative hemoccult results were scored (1). […] On day 14, a final weight was taken and fecal score assessed. […] Scores were determined according to previously published protocols with slight modification as follows in TABLE 3: Each tissue cross-section present on the microscope slide (n=2-6) was scored individually between 0-4 with a corresponding percentage involvement (rounded to the nearest quartile). […]

The nature of data set [2]: Effect of sonication on molecular structure (1H NMR). Type of data set: physicochemical. Conditions: 20 kHz ultrasound at highest intensity, 4 mg/mL in deuterated DMSO. The procedure: Three biological replicates were performed. Unsonicated samples were used as the control. A Varian 500 (1H, 500 MHz) spectrometer was used to record 1H NMR spectra, then processed using Mnova NMR software (available from Mestralab Research, A Coruña, Spain). The 1H NMR spectra were referenced with residual non-deuterated solvent shifts (DMSO-d5=2.5 ppm). All shifts are reported in ppm. Note the disappearance of the volatile internal tetramethylsilane (TMS) standard after ultrasound treatment, which was carried out in an uncapped vial.
Deuterium exchange occurs as labile protons on the analyte exchange with the deuterated solvent in which it is dissolved. Replacement of protons by deuterium results in loss of signal, shown either as a reduction in the integration fractions or disappearance of the peak altogether. Other indications of deuterium exchange include a slight broadening of peak shape, a shift in peak location, and slight change in J coupling values.

Details of data set [3]: species or system Yorkshire pigs. The note with it: both, Yorkshire, pig, in vivo. The procedure:
Before every experiment, the animal was fasted overnight.
In step 1402, the subject's rectum is cleared, for example, with a tap water enema. In the study, a clean rectum was confirmed by colonoscopy prior to treatment.
In step 1404, a medicated enema is instilled.
In step 1406, ultrasound is applied. In the study, Control and Treatment tests were performed on separate days. For Treatment tests, the ultrasound treatment was applied using a 20 kHz horn for 2 minutes at a 50% duty cycle at an intensity of 7.5 W/cm^2. For Control tests, the ultrasound probe was inserted into the colon, but not turned on (n=16).
In step 1408, the tissue is biopsied for further assessment. Colonic areas treated with ultrasound were biopsied using endoscopic biopsy forceps (available from, e.g., US Endoscopy, Mentor, Ohio) for drug delivery evaluation as well as histological analysis (n=13).
Each point represents one biological replicate (n=16 for Control, n=13 for Treatment).
Tissue was ground and mixed with phosphate buffered saline and precipitated with 10% trichloroacetic acid. The resulting supernatant was extracted with ethyl acetate. This extract was dried with anhydrous sodium sulfate, transferred to a glass tube, and evaporated to dryness under nitrogen. […] Finally, the sample was allowed to cool to room temperature and analyzed by GC/MS. […]

The subject of the next data set is blood-glucose. Conditions: swine, enema containing 100U insulin with 1-minute 20 kHz ultrasound.
The test system of a further data set is colon tissue. The data set is described as follows: Ex vivo delivery of radiolabeled permeants in Franz diffusion cells, colon. Conditions: colonic tissue, ultrasound treatment, on average.
The subject of a further data set is porcine small intestine. As to the kind of experiment: Permeability in Side-Bi-Side diffusion cells. Type of data set: in vitro ADME. As to the method: Side-Bi-Side™ diffusion cells (available from PermeGear, Hellertown, Pa.) with inner diameters of 9 mm were used to determine permeability. Tissue was placed between the two chambers and clamped together with the luminal side facing the donor chamber. Stir bars were added to both the donor and receiver chambers and agitated using the Bell-ennium™ 9-position magnetic stirrer.
The donor solution consisted of 2 μCi/mL 3H-glucose and 2 μCi/mL 14C-labeled inulin. Each donor chamber was filled with 3 mL of this solution and the receiver solution was filled with 3 mL fresh PBS. At 10-minute intervals over the course of one hour,100 μL samples were taken from the receiver chamber and replaced with an equal volume of fresh PBS. Then, 15 mL of Hionic Fluor was added to these samples and analyzed for tritiated decomposition and 14C decomposition. Seven repeats were performed for the Control samples, and 17 for the Treated samples. […]
The only unknown in Equation 3 is the pore size in λ. Therefore, P may be determined experimentally for each permeant to estimate the membrane pore size. […]
where A is the area of the membrane exposed to the permeant, Ci is the concentration of the permeant in the donor chamber, and dQi/dt is the slope of the plot of the permeant quantity in the receiver chamber versus time after the lag-phase. […]

Procedure for blood-glucose: Both female and male Yorkshire pigs between 45-80 kg in weight were used for one study based on the availability of sex from the vendor. […] Before every experiment, the animal was fasted overnight. Sedation was induced with intramuscular injection of Telazol® tiletamine, 5 mg/kg (available from Zoetis, Inc., Florham, N.J.), xylazine 2 mg/kg, and atropine 0.04 mg/kg. The animal was then intubated and sedation maintained with isoflurane (1-3% inhaled).
In addition to the preparation noted above, a central venous catheter was placed in the femoral vein using the Seldinger technique to allow for frequent blood sampling. […] A real-time readout was achieved using a TRUEtrack® blood glucose meter (available from Nipro Diagnostics Inc., Fort Lauderdale, Fla.). The remaining blood sample was saved in a blood collection tube with sodium fluoride and ethylenediaminetetraacetic acid (EDTA) to minimize further glucose metabolism. All data shown represents the blood-glucose values quantified from the blood collection tubes, which was evaluated in a blinded fashion.
The blood-glucose was monitored for at least 40 minutes, depending on the experiment's effect on blood-glucose. When necessary, hypoglycemia was corrected with intravenous boluses of 50% dextrose (only needed when ultrasound treatment took place). […]
Procedure for colon tissue: Solutions of the four compounds at a concentration of 1 mg/mL were prepared with a radiolabel content ranging from about 0.001% to about 2.5% depending on the stock solution's radiolabel content.
GI tissue (e.g., tongue, esophagus, stomach, intestine, and colon tissue) from Yorkshire pigs was procured within 20 minutes of animal euthanization and stored at about 4° C. Drug delivery testing took place within 6 hours of euthanization. Upon delivery, the fresh porcine tissue was washed with PBS and excess fat was carefully dissected away. With the exception of tongue tissue, the full thickness of the tissue was used for testing. The tissue was sectioned into approximately 2 cm-by-2 cm pieces and kept hydrated with PBS. The variability in thickness of tongue tissue prevented mounting of the entire thickness in the diffusion chambers. […]
Low-frequency (e.g., less than 100 kHz) ultrasound was utilized and administered directly to tissue and compared to controls consisting of untreated tissue. Delivery efficacy was assessed by quantifying the delivery of radiolabeled permeants into and through tissue utilizing Franz diffusion cells. […] Unless otherwise noted, delivered quantities represent the total amount of permeant delivered over this area. […]

On to `Nc1ccc(O)c(C(=O)O)c1` [mesalamine, 5-aminosalicylic acid], for which the “Total fecal score on day 14” value in data set [1] (mesalamine enema alone QD) is “significantly elevated”; in data set [1] (mesalamine enema with ultrasound treatment QD) it was “below 4”; in data set [1] (mesalamine enema with ultrasound treatment QOD) it was “below 4”. Besides, in data set [2], the “Molecular structure / chemical stability after sonication (1H NMR)” value is on record as “chemical stability”. Also, in data set [3], the “Drug content in tissue biopsies (limit of detection)” value is listed as less than 50 ng/g tissue. For the same compound, in data set [3], the “Increase in delivery to tissue biopsies using ultrasound compared to tissue not treated” value turned out to be 22.4 fold.
For the compound insulin aspart, the Blood-glucose response entry with blood-glucose is given as “robust hypoglycemic response”.
In the case of inulin, the “Amount in the tissue compared to that in the receiver chamber” value with colon tissue is listed as 90 fold. Further, in the data set with porcine small intestine (tissue not treated with ultrasound), the Permeability is 2.27 ± 1.13 nm/s. The same compound returned an Average permeability with porcine small intestine (ultrasound treated samples, 20 kHz for 2 minutes at 50% duty cycle) of 4.9 ± 2.27 nm/s.
